The target of test [1] is T1, 5-HT1A receptor (Rattus norvegicus, UniProt P19327).
T1 construct: from tissue
T1 sequence (P19327 1-422): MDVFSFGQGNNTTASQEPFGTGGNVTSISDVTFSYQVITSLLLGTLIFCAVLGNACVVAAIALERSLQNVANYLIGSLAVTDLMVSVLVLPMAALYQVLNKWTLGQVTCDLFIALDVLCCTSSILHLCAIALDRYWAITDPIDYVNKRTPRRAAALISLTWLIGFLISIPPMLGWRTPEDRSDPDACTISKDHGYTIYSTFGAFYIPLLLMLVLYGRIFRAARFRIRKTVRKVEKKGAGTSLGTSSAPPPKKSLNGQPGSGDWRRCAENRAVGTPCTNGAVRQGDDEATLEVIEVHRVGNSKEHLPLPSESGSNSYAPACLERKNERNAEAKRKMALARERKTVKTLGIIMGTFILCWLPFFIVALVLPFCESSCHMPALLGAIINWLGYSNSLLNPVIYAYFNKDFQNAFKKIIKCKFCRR
As to the kind of experiment: 5-HT1A receptor binding test. The text has this:
In particular, they inhibit 5-HT reuptake. […] Due to a 5-HT-agonistic action and 5-HT reuptake inhibition, serotonin remains in the synaptic cleft for longer and the serotonin action is reinforced. Active ingredients having such properties are therefore particularly suitable as antidepressants and anxiolytics. The compounds of the formula I inhibit the binding of tritiated serotonin ligands to hippocampal receptors (Cossery et al., European J. Pharmacol. 140 (1987), 143-155) and synaptosomal serotonin reuptake (Sherman et al., Life Sci. 23 (1978), 1863-1870).
The 5-HT1A-agonistic action can be measured in vitro, for example, with the aid of the (serotonin) binding test, as described by Matzen et al. (J. Med. Chem., 43 (2000), 1149-57), in particular on page 1156 with reference to Eur. J. Pharmacol., 140 (1987), 143-155. In addition, the 5-HT1A-agonistic action can be measured with the aid of the GTPgammaS test described by Newman-Tancredi et al. (Eur. J. Pharmacol. 307 (1996), 107-11).

Test [2] addresses 5-HT4 receptor (Homo sapiens, UniProt Q13639). Put plainly: 5-HT4 receptor binding test.

pIC50: −log10 of the molar value.

From patent US20060160824A1, “Indole derivatives as serotonin reuptake inhibitors” (priority 2003, published 2006) come the findings set out here.

Sequence of 5-HT4 receptor (Q13639 whole entry): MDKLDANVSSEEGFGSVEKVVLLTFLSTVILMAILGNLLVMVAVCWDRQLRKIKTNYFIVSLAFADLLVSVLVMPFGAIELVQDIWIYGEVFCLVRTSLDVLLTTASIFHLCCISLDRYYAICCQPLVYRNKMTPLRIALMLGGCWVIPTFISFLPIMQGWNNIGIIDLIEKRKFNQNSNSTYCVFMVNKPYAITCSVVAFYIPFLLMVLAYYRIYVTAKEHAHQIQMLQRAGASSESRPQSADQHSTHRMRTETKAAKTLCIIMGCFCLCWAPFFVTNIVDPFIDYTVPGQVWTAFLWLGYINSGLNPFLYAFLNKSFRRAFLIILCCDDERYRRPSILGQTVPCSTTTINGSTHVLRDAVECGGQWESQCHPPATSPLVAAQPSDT

For the compound `Cn1cc(CCCCN2CCN(c3ccc4oc(C(N)=O)cc4c3)CC2)c2cc(C#N)ccc21` [Example 1, 5-{4-[4-(5-cyano-1-methyl-1H-indol-3-yl)butyl]piperazin-1-yl}-benzofuran-2-carboxamide], the pIC50 in test [1] was 7.02; in test [2] it was 7.68.
